{
  "source": "patent US11278504B1",
  "about": "“Treatment of a lionfish sting and formulations for use thereof” (priority 2019, dated 2022)",
  "key": {"P2X3 receptors": {"biological_target": "T1, P2X3 receptors (Mus musculus, UniProt Q3UR32)", "T1 construct": "endogenous in cells; host or cells: primary DRG cultures of TRPV1-Cre::GCaMP6f mice", "T1 sequence (Q3UR32 1-397)": "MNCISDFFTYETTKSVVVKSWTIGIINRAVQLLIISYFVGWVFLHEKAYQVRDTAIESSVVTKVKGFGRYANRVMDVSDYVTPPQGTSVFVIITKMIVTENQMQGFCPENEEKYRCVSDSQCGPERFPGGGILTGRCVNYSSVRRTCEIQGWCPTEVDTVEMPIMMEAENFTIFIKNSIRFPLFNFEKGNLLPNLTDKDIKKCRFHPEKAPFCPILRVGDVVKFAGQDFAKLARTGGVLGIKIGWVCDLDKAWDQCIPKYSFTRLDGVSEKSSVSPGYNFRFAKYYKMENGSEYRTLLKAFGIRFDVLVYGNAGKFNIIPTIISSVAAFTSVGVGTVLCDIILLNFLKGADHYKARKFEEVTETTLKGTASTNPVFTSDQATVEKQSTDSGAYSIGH", "format": "cell-based", "protocol": "Cre-dependent GCaMP6f mice (Ai95D; Jackson Labs) were crossed with TRPV1-Cre mice to express GCaMP6f in all nociceptors. In TRPV1-Cre::GCaMP6f mice, GCaMP6f expression is not limited to cells that are TRPV1-positive at maturity, because TRPV1 is expressed broadly amongst nociceptors early in development.\nDRG cultures were grown on 35 mm dishes. On the 3rd day, the cultures were treated with complexes of predesigned siRNA molecules directed against mouse P2X3 or a non-targeting control siRNA (Qiagen FlexiTube siRNA final concentration 100 nM) and 2 ul of HiPerFect transfection reagent. The cells were incubated with the transfection complexes for 48 to 72 hours with addition of fresh media 24 h post-transfection."}, "P2X3 receptor": {"biological_target": "T2, P2X3 receptor (Homo sapiens, UniProt P56373)", "T2 construct": "dorsal root ganglia were isolated from human organ donors and placed in culture; endogenous in cells; host or cells: primary sensory neurons cultured from human donor dorsal root ganglia", "T2 sequence (P56373 whole entry)": "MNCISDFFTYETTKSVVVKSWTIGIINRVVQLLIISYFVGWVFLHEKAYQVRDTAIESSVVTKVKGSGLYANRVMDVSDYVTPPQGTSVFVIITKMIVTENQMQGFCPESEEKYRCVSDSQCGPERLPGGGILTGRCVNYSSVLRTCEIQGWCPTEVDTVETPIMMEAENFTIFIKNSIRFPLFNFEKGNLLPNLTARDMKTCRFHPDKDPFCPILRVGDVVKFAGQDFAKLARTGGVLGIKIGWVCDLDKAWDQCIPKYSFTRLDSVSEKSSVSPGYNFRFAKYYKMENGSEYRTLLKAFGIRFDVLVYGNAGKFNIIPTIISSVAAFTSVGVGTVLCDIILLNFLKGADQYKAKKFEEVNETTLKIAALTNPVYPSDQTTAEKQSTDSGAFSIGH", "assay": "Calcium imaging of cultured human nociceptors exposed to lionfish venom", "format": "cell-based", "settings": "AF-353 300 nM, 8-minute incubation; p<0.001 Fisher's exact test", "procedure": "To verify the efficacy of this compound in humans, dorsal root ganglia were isolated from human organ donors and placed in culture between 3 and 5 hours after cross-clamping the heart. Sensory neurons were cultured for at least 5 days before performing any experiments to allow for satellite cell detachment. For calcium imaging experiments, human nociceptors were exposed to the lionfish venom in the presence of the P2X3 receptor antagonist AF-353 (300 nM), which was introduced in the bath solution (in mM: NaCl 150, KCl 3, Glucose 10, CaCl2) 2, and MgCl2 1; in distilled water, buffered to a pH of 7.3). Cells were incubated with AF-353 for 8-minutes either after an initial application of lionfish venom or before any applications of the venom. Venom was applied in 2-second puffs with a picospritzer as in FIG. 2."}, "P2X3": {"biological_target": "T3, P2X3 (Mus musculus, UniProt Q3UR32)", "T3 construct": "from tissue; host or cells: living mice, hind paw (whole animal, behavioural read-out)", "assay": "Spontaneous pain assay, intraplantar AF-353 before or after lionfish venom", "format": "in vivo, mice", "settings": "AF-353 3 mM in 20 μL intraplantar 30 minutes prior or within 2 minutes after 66 μg venom; 1 hour", "procedure": "AF-353 was prepared in a stock solution of 300 mM in DMSO and diluted to 3 mM in physiological saline for at the time of experimentation. Mice were injected with AF-353 intraplantarly either 30 minutes prior to injection of lionfish venom, to determine whether the compound could be used as a prophylactic treatment against lionfish envenomations, or immediately (within 2 minutes) after injection of lionfish venom in the paw, in order to determine whether the compound could be used as a treatment after lionfish envenomations. During the experiment, mice were placed on a glass surface with a mirror placed underneath at a 45-degree angle and kept in round Plexi-glass restrainers. A video camera filmed the animals' spontaneous pain behaviour for an hour. The amount of time the mice spent licking their paws was quantified by two independent and blinded experimenters.\nMice were injected with the vehicle (Veh) for AF-353 (DMSO) 30 minutes prior to injection of the Veh for the venom (physiological saline) (empty squares), venom (Vnm) followed by Veh (DMSO; black squares), AF-353 (AF, 3 mM in a total volume of 20 μL) followed by venom (light grey squares), or venom followed by AF-353 (dark grey squares). n=5 mice per group. The dose of venom injected was 66 μg of crude venom in a total volume of 20 μL (veh. saline). […] Stats: ***=P<0.001; **=P=0.009. Unpaired t test."}, "TRPV1 [1]": {"biological_target": "T4, TRPV1 (Mus musculus, UniProt Q704Y3)", "T4 sequence (Q704Y3 whole entry)": "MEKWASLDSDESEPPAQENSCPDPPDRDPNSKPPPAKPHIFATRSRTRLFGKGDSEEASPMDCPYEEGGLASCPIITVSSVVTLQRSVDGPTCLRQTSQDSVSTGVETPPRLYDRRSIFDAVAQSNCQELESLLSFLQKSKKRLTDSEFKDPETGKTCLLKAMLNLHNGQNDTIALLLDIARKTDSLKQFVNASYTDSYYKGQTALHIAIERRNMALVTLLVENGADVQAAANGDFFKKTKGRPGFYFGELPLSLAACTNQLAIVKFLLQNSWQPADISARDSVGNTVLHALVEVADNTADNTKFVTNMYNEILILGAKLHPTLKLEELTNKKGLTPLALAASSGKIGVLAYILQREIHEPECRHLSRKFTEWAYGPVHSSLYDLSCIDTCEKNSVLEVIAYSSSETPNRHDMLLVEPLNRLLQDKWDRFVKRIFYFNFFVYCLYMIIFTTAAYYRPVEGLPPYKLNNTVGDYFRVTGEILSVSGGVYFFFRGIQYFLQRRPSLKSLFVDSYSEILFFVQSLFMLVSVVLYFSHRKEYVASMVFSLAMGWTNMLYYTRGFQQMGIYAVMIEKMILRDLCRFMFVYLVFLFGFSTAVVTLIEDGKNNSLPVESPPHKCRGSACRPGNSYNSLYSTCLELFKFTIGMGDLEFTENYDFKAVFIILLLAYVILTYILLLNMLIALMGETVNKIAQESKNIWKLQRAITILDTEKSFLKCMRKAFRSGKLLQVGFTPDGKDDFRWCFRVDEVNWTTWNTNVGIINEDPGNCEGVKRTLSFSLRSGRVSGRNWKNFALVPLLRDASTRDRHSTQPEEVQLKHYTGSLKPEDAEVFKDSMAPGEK", "format": "cell-based, mice", "procedure": "To test the TRPV1 receptor antagonist, changes in intracellular calcium concentrations in single cells were recorded as changes in GCaMP6f fluorescence. Exposure to the antagonist (10 μM) and image analysis were performed in a manner similar to the bradykinin (BK) receptor antagonist described above. The TRPV1 receptor agonist capsaicin (1 μM) and lionfish venom were applied during 1 second over the imaging region."}, "TRPV1 [2]": {"biological_target": "T4, TRPV1", "format": "in vivo, mice", "settings": "30 mg/kg intraperitoneal; 44 μg venom intraplantar; P=0.841 vs vehicle", "protocol": "Protein concentration in the venom extract was determined to be 2.2 μg/μL using the Bio-Rad DC assay. Mice (12-weeks old C57BL/6 males and females, The Jackson Laboratory) were placed in an observation chamber on a glass platform, under which a mirror was placed at a 45° angle so as to show the hind paw of the mouse to the recording videocamera. Once the mice were acclimatized to the chamber, they were taken out and injected in the ventral aspect of their left hind paw with a 20 μl solution of the crude or diluted venom (44 or 4.4 μg/20 μl). The venom was extracted in sterile physiological saline (0.9% NaCl) and the same vehicle was used for dilutions."}},
  "data": [
    {"smiles": "COc1cc(C(C)C)c(Oc2cnc(N)nc2N)cc1I", "note": "[AF-353]", "values": [
      {"measurement": "venom-elicited intracellular calcium responses in cultured mouse nociceptors", "setting": "P2X3 receptors", "value": "reversibly blocks"},
      {"measurement": "α,β,Me-ATP-elicited calcium responses in cultured mouse nociceptors", "setting": "P2X3 receptors; selective P2X3 receptor agonist α,β,Me-ATP", "value": "reversibly blocks"},
      {"measurement": "venom-induced calcium responses in human nociceptors", "setting": "P2X3 receptor", "value": "do not display calcium responses"},
      {"measurement": "pain caused by lionfish venom in vivo (time licking injected paw)", "setting": "P2X3", "value": "effective in reducing or eliminating pain"}
    ]},
    {"smiles": "CC(C)(C)c1ccc(/C=C/C(=O)Nc2ccc3c(c2)OCCO3)cc1", "note": "[AMG-9810]", "values": [
      {"measurement": "Proportion of cultured DRG neurons responding to capsaicin in the presence of AMG-9810", "setting": "TRPV1 [1]", "value": "0/65"},
      {"measurement": "effect on capsaicin-elicited rise in intracellular calcium (sample traces)", "setting": "TRPV1 [1]", "value": "blocked response"},
      {"measurement": "proportion of cells (DRG neurons) responding to the venom in the presence of AMG-9810", "setting": "TRPV1 [1]; AMG-9810 10 μM, Fisher exact test P=0.322", "value": "30/32"},
      {"measurement": "venom-elicited spontaneous pain behavior over 1 hour after AMG-9810 pretreatment", "setting": "TRPV1 [2]", "value": "independent"}
    ]},
    {"smiles": "COc1cc(CNC(=O)CCCC/C=C/C(C)C)ccc1O", "note": "[capsaicin]", "values": [
      {"measurement": "Proportion of cultured DRG neurons responding to capsaicin alone", "setting": "TRPV1 [1]", "value": "45/65"}
    ]}
  ]
}
